Tested on: 12 single or co-culture in vitro tissue models of primary cells
Test: Culture/co-culture cell model panel, extracellular biomarkers (DiscoveRx); for CCL2/MCP-1: reference of the scale not given here; for CXCL8/IL-8: reference of the scale not given here; for CXCL9/MIG: reference of the scale not given here; for M-CSF: reference of the scale not given here; for PBMC Cytotoxicity: reference of the scale not given here; for SRB: reference of the scale not given here; for sTNF-alpha: reference of the scale not given here
Assay type: cell-based, human
Details: for sTNF-alpha / B cell Proliferation / PBMC Cytotoxicity / Secreted IgG / sIL-2 / sIL-6 / sIL-17A / sIL-17F: BT; for CCL2/MCP-1 / CD54/ICAM-1 / CD106/VCAM-1 / CXCL8/IL-8 / CXCL9/MIG / CXCL10/IP-10 / CXCL11/I-TAC / Collagen I / Collagen III / EGFR / M-CSF / MMP-1 / PAI-I / Proliferation_72hr / SRB / TIMP-1 / TIMP-2: HDF3CGF stimulated fibroblasts

In the case of `Cc1n[nH]c2ncc(C(=O)N3CCC[C@H]3c3ccc(Cl)cc3)cc12` [CMPD4], the sTNF-alpha (1.00E4 nM) is reported as 0.086, the “B cell Proliferation” value (1.11E3 nM) is reported as 0.005 and the “PBMC Cytotoxicity” value (1.11E3 nM) is reported as 0.008. For the same molecule, the “Secreted IgG” value (1.11E3 nM) was -0.271, the sIL-2 (1.11E3 nM) was -0.010 and the sIL-6 (1.11E3 nM) was 0.011. The sIL-17A (1.11E3 nM) was 0.280, the sIL-17F (1.11E3 nM) was -0.402 and the sTNF-alpha (1.11E3 nM) was 0.063. The “B cell Proliferation” value (1.23E2 nM) was 0.027, the “PBMC Cytotoxicity” value (1.23E2 nM) was 0.018 and the “Secreted IgG” value (1.23E2 nM) was -0.256. It also gave a sIL-2 (1.23E2 nM) of 0.014, a sIL-6 (1.23E2 nM) of 0.030 and a sIL-17A (1.23E2 nM) of 0.185. The sIL-17F (1.23E2 nM) was -0.282, the sTNF-alpha (1.23E2 nM) was 0.057 and the “B cell Proliferation” value (1.37E1 nM) was -0.012. For the same molecule, the “PBMC Cytotoxicity” value (1.37E1 nM) was 0.011, the “Secreted IgG” value (1.37E1 nM) was -0.141 and the sIL-2 (1.37E1 nM) was 0.014. For the same molecule, the sIL-6 (1.37E1 nM) was 0.027, the sIL-17A (1.37E1 nM) was 0.187 and the sIL-17F (1.37E1 nM) was -0.0019. For the same molecule, the sTNF-alpha (1.37E1 nM) was 0.046, the “B cell Proliferation” value (3.33E3 nM) was -0.018 and the “PBMC Cytotoxicity” value (3.33E3 nM) was -0.00188. The “Secreted IgG” value (3.33E3 nM) was -0.298, the sIL-2 (3.33E3 nM) was -0.066 and the sIL-6 (3.33E3 nM) was 0.010. For the same molecule, the sIL-17A (3.33E3 nM) was 0.312, the sIL-17F (3.33E3 nM) was -0.374 and the sTNF-alpha (3.33E3 nM) was 0.093. For the same molecule, the “B cell Proliferation” value (3.70E2 nM) was -0.072, the “PBMC Cytotoxicity” value (3.70E2 nM) was -0.003 and the “Secreted IgG” value (3.70E2 nM) was -0.278. It also gave a sIL-2 (3.70E2 nM) of -0.005, a sIL-6 (3.70E2 nM) of -0.000869 and a sIL-17A (3.70E2 nM) of 0.240. For the same molecule, the sIL-17F (3.70E2 nM) was -0.290, the sTNF-alpha (3.70E2 nM) was 0.057 and the “B cell Proliferation” value (4.12E1 nM) was -0.040. The “PBMC Cytotoxicity” value (4.12E1 nM) was -0.011, the “Secreted IgG” value (4.12E1 nM) was -0.161 and the sIL-2 (4.12E1 nM) was 0.032. The sIL-6 (4.12E1 nM) was 0.045, the sIL-17A (4.12E1 nM) was 0.263 and the sIL-17F (4.12E1 nM) was -0.163. For the same molecule, the sTNF-alpha (4.12E1 nM) was 0.025, the “B cell Proliferation” value (4.57E0 nM) was 0.00188 and the “PBMC Cytotoxicity” value (4.57E0 nM) was 0.009. The “Secreted IgG” value (4.57E0 nM) was 0.00642, the sIL-2 (4.57E0 nM) was 0.059 and the sIL-6 (4.57E0 nM) was -0.013. For the same molecule, the sIL-17A (4.57E0 nM) was 0.029, the sIL-17F (4.57E0 nM) was -0.027 and the sTNF-alpha (4.57E0 nM) was 0.044. For the same molecule, the CCL2/MCP-1 (1.00E4 nM) was -0.062, the CD54/ICAM-1 (1.00E4 nM) was -0.066 and the CD106/VCAM-1 (1.00E4 nM) was 0.015. The CXCL8/IL-8 (1.00E4 nM) was -0.071, the CXCL9/MIG (1.00E4 nM) was -0.035 and the CXCL10/IP-10 (1.00E4 nM) was 0.016. For the same molecule, the CXCL11/I-TAC (1.00E4 nM) was -0.012, the “Collagen I” value (1.00E4 nM) was 0.017 and the “Collagen III” value (1.00E4 nM) was 0.028. For the same molecule, the EGFR (1.00E4 nM) was -0.096, the M-CSF (1.00E4 nM) was -0.031 and the MMP-1 (1.00E4 nM) was -0.059. It also gave a PAI-I (1.00E4 nM) of -0.088, a Proliferation_72hr (1.00E4 nM) of -0.248 and an SRB (1.00E4 nM) of -0.00367. For the same molecule, the TIMP-1 (1.00E4 nM) was -0.111, the TIMP-2 (1.00E4 nM) was -0.065 and the CCL2/MCP-1 (1.11E3 nM) was -0.100. The CD54/ICAM-1 (1.11E3 nM) was -0.070, the CD106/VCAM-1 (1.11E3 nM) was 0.050 and the CXCL8/IL-8 (1.11E3 nM) was -0.111. The CXCL9/MIG (1.11E3 nM) was -0.045, the CXCL10/IP-10 (1.11E3 nM) was 0.029 and the CXCL11/I-TAC (1.11E3 nM) was -0.023. For the same molecule, the “Collagen I” value (1.11E3 nM) was -0.003, the “Collagen III” value (1.11E3 nM) was 0.052 and the EGFR (1.11E3 nM) was -0.103. It also gave a M-CSF (1.11E3 nM) of -0.041, an MMP-1 (1.11E3 nM) of -0.071 and a PAI-I (1.11E3 nM) of -0.065. For the same molecule, the Proliferation_72hr (1.11E3 nM) was -0.244, the SRB (1.11E3 nM) was -0.002 and the TIMP-1 (1.11E3 nM) was -0.078. The TIMP-2 (1.11E3 nM) was 0.064, the CCL2/MCP-1 (1.23E2 nM) was -0.076 and the CD54/ICAM-1 (1.23E2 nM) was -0.078. For the same molecule, the CD106/VCAM-1 (1.23E2 nM) was 0.069, the CXCL8/IL-8 (1.23E2 nM) was -0.081 and the CXCL9/MIG (1.23E2 nM) was -0.042. For the same molecule, the CXCL10/IP-10 (1.23E2 nM) was 0.037, the CXCL11/I-TAC (1.23E2 nM) was -0.032 and the “Collagen I” value (1.23E2 nM) was 0.025. For the same molecule, the “Collagen III” value (1.23E2 nM) was 0.068, the EGFR (1.23E2 nM) was -0.097 and the M-CSF (1.23E2 nM) was -0.068. For the same molecule, the MMP-1 (1.23E2 nM) was -0.042, the PAI-I (1.23E2 nM) was -0.031 and the Proliferation_72hr (1.23E2 nM) was -0.191. It also gave an SRB (1.23E2 nM) of 0.024, a TIMP-1 (1.23E2 nM) of -0.068 and a TIMP-2 (1.23E2 nM) of 0.076. For the same molecule, the CCL2/MCP-1 (1.37E1 nM) was -0.043, the CD54/ICAM-1 (1.37E1 nM) was -0.058 and the CD106/VCAM-1 (1.37E1 nM) was 0.069. The CXCL8/IL-8 (1.37E1 nM) was -0.024, the CXCL9/MIG (1.37E1 nM) was -0.012 and the CXCL10/IP-10 (1.37E1 nM) was 0.038. The CXCL11/I-TAC (1.37E1 nM) was -0.002, the “Collagen I” value (1.37E1 nM) was 0.048 and the “Collagen III” value (1.37E1 nM) was 0.094. For the same molecule, the EGFR (1.37E1 nM) was -0.067, the M-CSF (1.37E1 nM) was -0.052 and the MMP-1 (1.37E1 nM) was 0.006. The PAI-I (1.37E1 nM) was 0.00043, the Proliferation_72hr (1.37E1 nM) was -0.130 and the SRB (1.37E1 nM) was 0.016. For the same molecule, the TIMP-1 (1.37E1 nM) was -0.033, the TIMP-2 (1.37E1 nM) was 0.049 and the CCL2/MCP-1 (3.33E3 nM) was -0.117. For the same molecule, the CD54/ICAM-1 (3.33E3 nM) was -0.064, the CD106/VCAM-1 (3.33E3 nM) was 0.050 and the CXCL8/IL-8 (3.33E3 nM) was -0.103. For the same molecule, the CXCL9/MIG (3.33E3 nM) was -0.054, the CXCL10/IP-10 (3.33E3 nM) was 0.032 and the CXCL11/I-TAC (3.33E3 nM) was -0.022. For the same molecule, the “Collagen I” value (3.33E3 nM) was 0.006, the “Collagen III” value (3.33E3 nM) was 0.051 and the EGFR (3.33E3 nM) was -0.111. It also gave a M-CSF (3.33E3 nM) of -0.031, an MMP-1 (3.33E3 nM) of -0.057 and a PAI-I (3.33E3 nM) of -0.062. For the same molecule, the Proliferation_72hr (3.33E3 nM) was -0.194, the SRB (3.33E3 nM) was -0.008 and the TIMP-1 (3.33E3 nM) was -0.075. For the same molecule, the TIMP-2 (3.33E3 nM) was -0.041, the CCL2/MCP-1 (3.70E2 nM) was -0.066 and the CD54/ICAM-1 (3.70E2 nM) was -0.075. It also gave a CD106/VCAM-1 (3.70E2 nM) of 0.067, a CXCL8/IL-8 (3.70E2 nM) of -0.100 and a CXCL9/MIG (3.70E2 nM) of -0.034. The CXCL10/IP-10 (3.70E2 nM) was 0.040, the CXCL11/I-TAC (3.70E2 nM) was -0.017 and the “Collagen I” value (3.70E2 nM) was 0.018. The “Collagen III” value (3.70E2 nM) was 0.066, the EGFR (3.70E2 nM) was -0.123 and the M-CSF (3.70E2 nM) was -0.056. For the same molecule, the MMP-1 (3.70E2 nM) was -0.053, the PAI-I (3.70E2 nM) was -0.013 and the Proliferation_72hr (3.70E2 nM) was -0.187. The SRB (3.70E2 nM) was 0.021, the TIMP-1 (3.70E2 nM) was -0.069 and the TIMP-2 (3.70E2 nM) was 0.123. It also gave a CCL2/MCP-1 (4.12E1 nM) of -0.141, a CD54/ICAM-1 (4.12E1 nM) of -0.066 and a CD106/VCAM-1 (4.12E1 nM) of 0.066. It also gave a CXCL8/IL-8 (4.12E1 nM) of -0.049.
